According to patent US9708368B2, “Linear peptide antibiotics” (priority 2012, dated 2017):
≈ marks a conversion by molar mass, not a printed value. Square brackets hold non-standard residues; d marks the D form. Peptide text beside a SMILES is read from it. * marks the point of attachment. ξ: configuration not given here. boroAla((+)-pinanediol) = C[C@H](N*)B1O[C@@H]2C[C@@H]3C[C@@H](C3(C)C)[C@]2(C)O1; Biphenylcarbonyl(4'-Bu) = CCCCc1ccc(-c2ccc(C(=O)*)cc2)cc1; X1 = C[C@H](N*)B1OC2C[C@@H]3C[C@@H](C3(C)C)[C@]2(C)O1; Benzoyl(4-(4-Cl-Ph)) = O=C(c1ccc(-c2ccc(Cl)cc2)cc1)*; NMeT = CN[C@H](C(=O)O)[C@@H](C)O; Thr(3ξ) = CC(O)[C@H](N)C(=O)O; NMeV = CN[C@H](C(=O)O)C(C)C; boroAla = C[C@H](N*)B(O)O; Orn = NCCC[C@H](N)C(=O)O; Aze = O=C(O)[C@@H]1CCN1; Dab = NCC[C@H](N)C(=O)O; Abu = CC[C@H](N)C(=O)O; Dap = NC[C@H](N)C(=O)O; βAla = NCCC(=O)O

How the values were obtained:
[1] = test system: Escherichia coli strain MC4100 IMP-4213, which harbors an LptD mutation; conditions: Method B; E. coli MC4100 IMP-4213 (LptD mutation); 35° C., 22 hours
In short: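 Two-fold serial dilutions of compound inoculated at final OD600 0.0005, incubated static at 35 °C for 22 h, and growth read visually.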

[2] = test system: methicillin resistant Staphylococcus aureus (MRSA) strain USA300 (NRS384); conditions: Method B, 35° C., 22 hours
[3] = target: S. aureus SPase (Staphylococcus aureus, UniProt P0A070); test: biochemical
[4] = target: E. coli SPase (Escherichia coli, UniProt P00803); test: Biochemical SPase activity assay (fluorogenic peptide substrate), E. coli enzyme
E. coli SPase, sequence (P00803 whole entry): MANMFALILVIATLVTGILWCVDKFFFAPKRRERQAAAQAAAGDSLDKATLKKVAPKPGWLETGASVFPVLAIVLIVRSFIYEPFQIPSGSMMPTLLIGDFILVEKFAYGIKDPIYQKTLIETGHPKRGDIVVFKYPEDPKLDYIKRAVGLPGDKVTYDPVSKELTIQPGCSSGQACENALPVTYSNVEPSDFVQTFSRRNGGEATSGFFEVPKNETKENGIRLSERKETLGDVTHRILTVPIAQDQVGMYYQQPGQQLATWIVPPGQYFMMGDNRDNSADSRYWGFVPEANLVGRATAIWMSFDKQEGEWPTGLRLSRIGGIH
Procedure: Reactions were initiated by the addition of substrate to a final concentration of 20 μM. Reaction progress was monitored by measuring the increase in fluorescence signal (excitation at 314 nm, emission at 416 nm) using a SpectraMax M2 fluorescence microplate reader. […] Three-folder serial dilutions of test compounds, starting at 10 μM, were prepared in enzyme mix solution and incubated at room temperature for 10 minutes. Following this incubation, fluorogenic substrate was added to a final concentration of 20 μM and the increase in fluorescence, corresponding to substrate cleavage, was monitored continuously at room temperature for 1 hour. Initial reaction rates were calculated based on the rate of increase in fluorescence during the reaction. Reaction rates were plotted as a function of compound concentration, and IC50 values are determined nonlinear regression analysis (SoftMaxPro 5.4, Molecular Devices™) of the sigmoidal dose-response curve.

S. aureus SPase, sequence (P0A070 whole entry): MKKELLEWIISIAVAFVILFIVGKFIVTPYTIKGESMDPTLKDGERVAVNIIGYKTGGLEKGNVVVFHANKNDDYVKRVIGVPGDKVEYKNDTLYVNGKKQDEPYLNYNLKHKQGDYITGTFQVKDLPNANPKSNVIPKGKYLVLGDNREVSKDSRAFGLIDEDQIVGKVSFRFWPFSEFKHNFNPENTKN

Structure (SMILES)	MIC (μg/mL) E. coli [1]	MIC (μg/mL) S. aureus [2]	IC50 [3]	IC50 [4]
CCCCc1ccc(-c2ccc(C(=O)N[C@@H](CN)C(=O)N[C@@H](CCCCN)C(=O)N[C@@H](C)C(=O)N[C@@H](CCCCN)C(=O)N[C@@H](C)B(O)O)cc2)cc1 [Compound 186] ({Biphenylcarbonyl(4'-Bu)}-[Dap]KAK-boroAla)	0.13 µg/mL (≈ 0.176 µM)	0.13 µg/mL (≈ 0.176 µM)	370 nM	6.9 nM
CCCCc1ccc(-c2ccc(C(=O)NCCCC[C@H](NC(=O)[C@@H](N)CCN)C(=O)N[C@@H](C)C(=O)N[C@@H](CCCCN)C(=O)N[C@@H](C)B3OC4C[C@@H]5C[C@@H](C5(C)C)[C@]4(C)O3)cc2)cc1 (some centres unmarked) [Compound 278] (H-[Dab]K(Biphenylcarbonyl(4'-Bu))AK-X1)	16 µg/mL (≈ 18 µM)	4 µg/mL (≈ 4.51 µM)	2300 nM	800 nM
CCCCc1ccc(-c2ccc(C(=O)N[C@@H](CCN)C(=O)N[C@H](C(=O)N[C@@H](C)C(=O)N[C@@H](CCCCN)C(=O)N[C@@H](C)B3OC4C[C@@H]5C[C@@H](C5(C)C)[C@]4(C)O3)[C@@H](C)O)c(C)c2)cc1 (some centres unmarked) [Compound 241]	0.18 µg/mL (≈ 0.206 µM)	0.25 µg/mL (≈ 0.286 µM)	42 nM	2.1 nM
CCCCc1ccc(-c2ccc(C(=O)N[C@@H](CCN)C(=O)N3CC[C@H]3C(=O)N[C@@H](C)C(=O)N[C@@H](CCCCN)C(=O)N[C@@H](C)B3O[C@@H]4C[C@@H]5C[C@@H](C5(C)C)[C@]4(C)O3)cc2)cc1 [Compound 183] ({Biphenylcarbonyl(4'-Bu)}-[Dab][Aze]AK-{boroAla((+)-pinanediol)})	1 µg/mL (≈ 1.19 µM)	1 µg/mL (≈ 1.19 µM)	610 nM	20 nM
CCCCc1ccc(-c2ccc(C(=O)N[C@H](CO)C(=O)N[C@H](C)C(=O)NCC(=O)N(C)[C@H](C(=O)N[C@@H](C)C(=O)N[C@@H](CC(N)=O)C(=O)N[C@@H](C)B3OC4C[C@@H]5C[C@@H](C5(C)C)[C@]4(C)O3)[C@@H](C)O)cc2)cc1 (some centres unmarked) [Compound 226] ({Biphenylcarbonyl(4'-Bu)}-[dS][dA]G[NMeT]AN-X1)	25 µg/mL (≈ 25.6 µM)	2.8 µg/mL (≈ 2.87 µM)	140 nM	440 nM
CCCCc1ccc(-c2ccc(C(=O)N[C@@H](CCCN)C(=O)N[C@H](C(=O)N[C@@H](CC)C(=O)N[C@@H](CCCCN)C(=O)N[C@@H](C)B3OC4C[C@@H]5C[C@@H](C5(C)C)[C@]4(C)O3)C(C)O)cc2)cc1 (some centres unmarked) [Compound 150] ({Biphenylcarbonyl(4'-Bu)}-[Orn][Thr(3ξ)][Abu]K-X1)	0.5 µg/mL (≈ 0.563 µM)	0.3 µg/mL (≈ 0.338 µM)	270 nM	6 nM
CCCCc1ccc(-c2ccc(C(=O)N3CCC(C(=O)N[C@H](C(=O)N[C@@H](C)C(=O)N[C@@H](CCCCN)C(=O)N[C@@H](C)B4O[C@@H]5C[C@@H]6C[C@@H](C6(C)C)[C@]5(C)O4)[C@@H](C)O)CC3)cc2)cc1 [Compound 272]	32 µg/mL (≈ 36.7 µM)	0.71 µg/mL (≈ 0.815 µM)	50 nM	1300 nM
CCCCc1ccc(-c2ccc(C(=O)NCCC(=O)N[C@@H](CCCCN)C(=O)N3CCC[C@H]3C(=O)N[C@@H](C)C(=O)N[C@@H](CCCCN)C(=O)N[C@@H](C)B3OC4C[C@@H]5C[C@@H](C5(C)C)[C@]4(C)O3)cc2)cc1 (some centres unmarked) [Compound 214] ({Biphenylcarbonyl(4'-Bu)-βAla}-KPAK-X1)	5.7 µg/mL (≈ 5.97 µM)	0.35 µg/mL (≈ 0.366 µM)	17 nM	77 nM
CCCCc1ccc(-c2ccc(C(=O)NCCC(=O)N[C@@H](CCCCN)C(=O)N[C@H](C(=O)N[C@H](C(=O)N[C@@H](CC(N)=O)C(=O)N[C@@H](C)B3OC4C[C@@H]5C[C@@H](C5(C)C)[C@]4(C)O3)C(C)C)[C@@H](C)O)cc2)cc1 (some centres unmarked) [Compound 212] ({Biphenylcarbonyl(4'-Bu)-βAla}-KTVN-X1)	5 µg/mL (≈ 5.14 µM)	0.84 µg/mL (≈ 0.863 µM)	12 nM	26 nM
CCCCc1ccc(-c2ccc(C(=O)N[C@@H](CCN)C(=O)N[C@H](C(=O)N[C@@H](C)C(=O)N[C@@H](CCCCN)C(=O)N[C@@H](C)B3O[C@@H]4C[C@@H]5C[C@@H](C5(C)C)[C@]4(C)O3)[C@@H](C)O)cc2)cc1 [Compound 187] ({Biphenylcarbonyl(4'-Bu)}-[Dab]TAK-{boroAla((+)-pinanediol)})	2.8 µg/mL (≈ 3.26 µM)	8 µg/mL (≈ 9.3 µM)	2100 nM	170 nM
CCCCc1ccc(-c2ccc(CN[C@@H](CCN)C(=O)N[C@H](C(=O)N[C@@H](C)C(=O)N[C@@H](CCCCN)C(=O)N[C@@H](C)B3OC4C[C@@H]5C[C@@H](C5(C)C)[C@]4(C)O3)[C@@H](C)O)cc2)cc1 (some centres unmarked) [Compound 266]	1 µg/mL (≈ 1.18 µM)	0.5 µg/mL (≈ 0.591 µM)	160 nM	22 nM
C[C@H](NC(=O)[C@H](CC(N)=O)NC(=O)[C@H](C)NC(=O)[C@@H](NC(=O)[C@H](CCCCN)NC(=O)CCNC(=O)c1ccc(-c2ccc(Cl)cc2)cc1)[C@@H](C)O)B(O)O [Compound 154] ({Benzoyl(4-(4-Cl-Ph))-βAla}-KTAN-boroAla)	32 µg/mL (≈ 40.6 µM)	2.8 µg/mL (≈ 3.55 µM)	8.1 nM	14 nM
CCCCc1ccc(-c2ccc(CNCCC(=O)N[C@H](C(=O)N[C@@H](C)C(=O)N[C@@H](CCCCN)C(=O)N[C@@H](C)B3O[C@@H]4C[C@@H]5C[C@@H](C5(C)C)[C@]4(C)O3)[C@@H](C)O)cc2)cc1 [Compound 270]	8 µg/mL (≈ 9.79 µM)	0.5 µg/mL (≈ 0.612 µM)	120 nM	650 nM
CCCCc1ccc(-c2ccc(C(=O)N[C@H](CO)C(=O)N[C@H](C)C(=O)NCC(=O)N(C)[C@H](C(=O)N[C@@H](C)C(=O)N[C@@H](CC(N)=O)C(=O)N[C@@H](C)B3OC4C[C@@H]5C[C@@H](C5(C)C)[C@]4(C)O3)C(C)C)cc2)cc1 (some centres unmarked) [Compound 230] ({Biphenylcarbonyl(4'-Bu)}-[dS][dA]G[NMeV]AN-X1)	20 µg/mL (≈ 20.6 µM)	2 µg/mL (≈ 2.06 µM)	150 nM	390 nM
CCCCc1ccc(-c2ccc(C(=O)N[C@@H](CCCCN)C(=O)N[C@@H](CCCCN)C(=O)N[C@@H](C)C(=O)N[C@@H](CC(C)C)C(=O)N[C@@H](C)B3OC4C[C@@H]5C[C@@H](C5(C)C)[C@]4(C)O3)cc2)cc1 (some centres unmarked) [Compound 146] ({Biphenylcarbonyl(4'-Bu)}-KKAL-X1)	0.25 µg/mL (≈ 0.278 µM)	0.4 µg/mL (≈ 0.444 µM)	160 nM	12 nM
CCCCc1ccc(-c2ccc(C(=O)N[C@@H](CCN)C(=O)N[C@@H](CCN)C(=O)N[C@@H](C)C(=O)N[C@@H](CC(C)C)C(=O)N[C@@H](C)B(O)O)cc2)cc1 [Compound 179] ({Biphenylcarbonyl(4'-Bu)}-[Dab][Dab]AL-boroAla)	0.5 µg/mL (≈ 0.705 µM)	2 µg/mL (≈ 2.82 µM)	570 nM	22 nM
CCCCc1ccc(-c2ccc(C(=O)NCCC(=O)N[C@@H](CCCCN)C(=O)N[C@@H](CCCCN)C(=O)N[C@@H](C)C(=O)N[C@@H](CC(N)=O)C(=O)N[C@@H](C)B3OC4C[C@@H]5C[C@@H](C5(C)C)[C@]4(C)O3)cc2)cc1 (some centres unmarked) [Compound 197] ({Biphenylcarbonyl(4'-Bu)-βAla}-KKAN-X1)	1 µg/mL (≈ 1.03 µM)	0.3 µg/mL (≈ 0.309 µM)	6.2 nM	11 nM
